Active and inactive are the calls of the source.
Legend:
[1] = molecular target: Type-1 angiotensin II receptor (Homo sapiens, UniProt P30556); assay: AT1 receptor agonists, dose response, selectivity assay for APJ receptor agonist project, cell-based, uHTS hits (AID 488865); assay type: functional;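 note: beta-arrestin recruitment to AT1 measured by enzyme fragment complementation luminescence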
cells = assay type: functional
[2] = A High Throughput Confirmatory Assay used to Identify Novel Compounds that Inhibit Mycobacterium Tuberculosis in the absence of Glycerol.; assay type: functional
[3] = microbe, parasite or virus in culture; assay type: functional; settings: Mycobacterium tuberculosis
[4] = HepG2 cell cytotoxicity, dose response, cytotoxicity control for non-replicating M. tuberculosis project (AID 489018); assay type: functional; settings: Mycobacterium tuberculosis
[5] = THP-1 cell cytotoxicity, dose response, cytotoxicity control for non-replicating M. tuberculosis project (AID 489025); assay type: functional
[6] = molecular target: Polyadenylate-binding protein 1 (Homo sapiens, UniProt P11940); assay: PABP inhibition in translation initiation, SAR follow-up (AID 435018); assay type: functional
Polyadenylate-binding protein 1, sequence (P11940 whole entry): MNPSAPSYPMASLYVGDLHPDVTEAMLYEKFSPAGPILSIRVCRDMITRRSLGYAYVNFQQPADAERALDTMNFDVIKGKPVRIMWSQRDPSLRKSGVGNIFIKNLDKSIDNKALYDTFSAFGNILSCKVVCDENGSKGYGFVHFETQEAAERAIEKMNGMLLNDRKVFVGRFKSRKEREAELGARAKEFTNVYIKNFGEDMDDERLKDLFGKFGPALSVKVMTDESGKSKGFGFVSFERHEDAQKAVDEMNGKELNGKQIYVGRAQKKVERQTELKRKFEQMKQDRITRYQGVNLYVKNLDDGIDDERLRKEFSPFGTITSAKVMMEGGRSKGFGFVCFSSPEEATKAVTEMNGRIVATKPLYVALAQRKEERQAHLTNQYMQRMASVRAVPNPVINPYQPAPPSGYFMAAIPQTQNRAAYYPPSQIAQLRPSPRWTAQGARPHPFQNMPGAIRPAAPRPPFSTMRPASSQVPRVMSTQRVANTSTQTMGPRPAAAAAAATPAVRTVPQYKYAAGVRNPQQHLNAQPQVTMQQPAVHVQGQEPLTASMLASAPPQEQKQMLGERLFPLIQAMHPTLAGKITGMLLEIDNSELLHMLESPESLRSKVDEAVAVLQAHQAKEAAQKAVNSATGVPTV

[7] = molecular target: Eukaryotic translation initiation factor 4H (Homo sapiens, UniProt Q15056); assay: eIF4H inhibition in translation initiation, SAR follow-up (AID 435011); assay type: functional
[8] = molecular target: DNA damage-inducible transcript 3 protein (Mus musculus, UniProt P35639); assay type: functional, Cricetulus griseus
DNA damage-inducible transcript 3 protein, sequence (P35639 whole entry): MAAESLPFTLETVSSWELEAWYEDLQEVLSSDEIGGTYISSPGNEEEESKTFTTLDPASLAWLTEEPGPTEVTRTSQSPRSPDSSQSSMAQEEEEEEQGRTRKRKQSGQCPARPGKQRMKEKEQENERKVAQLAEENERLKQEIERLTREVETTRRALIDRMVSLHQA

[9] = growth suppression of PTEN-null colon cells, dose response, cell-based, HCT116 PTEN knockout (AID 1047); assay type: functional;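 note: HCT116 colon tumor cells with PTEN knocked out; cells exposed to compound for 60 hours before readout; potency for loss of cell viability measured by luminescence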
Mucolipin-3 = Mucolipin-3 (Homo sapiens, UniProt Q8TDD5); assay: Fluorescence counterscreen assay for […] agonists: dose response cell-based high-throughput screening assay to identify agonists of the transient receptor potential channel ML3 (TRPML3). [Related pubchem assays: 1424, 1448 ]; assay type: functional
[10] = molecular target: T1, High affinity choline transporter 1 (Homo sapiens, UniProt Q9GZV3); assay: CHT inhibitors, dose response, cell-based, 5-point CRC, membrane potential dye (AID 504840); assay type: functional
T1 sequence (Q9GZV3 whole entry): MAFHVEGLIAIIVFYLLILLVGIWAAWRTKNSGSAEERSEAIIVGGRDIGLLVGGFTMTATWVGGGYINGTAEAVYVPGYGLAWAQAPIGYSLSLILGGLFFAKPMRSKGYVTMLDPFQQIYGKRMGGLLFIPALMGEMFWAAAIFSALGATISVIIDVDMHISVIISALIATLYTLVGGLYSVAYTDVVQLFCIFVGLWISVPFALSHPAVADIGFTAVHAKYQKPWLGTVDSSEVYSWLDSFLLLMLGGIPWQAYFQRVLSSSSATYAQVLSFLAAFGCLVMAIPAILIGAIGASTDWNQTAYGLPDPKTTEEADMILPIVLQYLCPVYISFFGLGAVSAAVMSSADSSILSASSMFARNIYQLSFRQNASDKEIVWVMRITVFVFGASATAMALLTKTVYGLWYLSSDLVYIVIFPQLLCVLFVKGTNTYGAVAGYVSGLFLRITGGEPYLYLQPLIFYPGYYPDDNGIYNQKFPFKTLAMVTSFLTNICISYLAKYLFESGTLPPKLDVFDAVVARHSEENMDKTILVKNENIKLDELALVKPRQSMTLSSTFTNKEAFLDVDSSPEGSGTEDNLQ

[11] = growth suppression of beta-catenin-knockout colon cells, dose response, cell-based, HCT116, human colon tumor (AID 1045); assay type: functional;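 note: HCT116 colon tumor cells with beta catenin knocked out; cells exposed to compound for 60 hours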
HEK293 = assay: inhibitors of LMP1-driven NF-kB reporter, dose response, cell-based, HEK293, luciferase, cherry-pick (AID 588343); assay type: functional; settings: Homo sapiens
Ion channel NompC = Ion channel NompC (Danio rerio, UniProt Q7T1G6); assay: Dose response cell-based high-throughput screening assay for agonists of the transient receptor potential channel N1 (TRPN1). [Related pubchem assays (depositor defined):AID1424, AID1448]; assay type: functional
Ion channel NompC, sequence (Q7T1G6 whole entry): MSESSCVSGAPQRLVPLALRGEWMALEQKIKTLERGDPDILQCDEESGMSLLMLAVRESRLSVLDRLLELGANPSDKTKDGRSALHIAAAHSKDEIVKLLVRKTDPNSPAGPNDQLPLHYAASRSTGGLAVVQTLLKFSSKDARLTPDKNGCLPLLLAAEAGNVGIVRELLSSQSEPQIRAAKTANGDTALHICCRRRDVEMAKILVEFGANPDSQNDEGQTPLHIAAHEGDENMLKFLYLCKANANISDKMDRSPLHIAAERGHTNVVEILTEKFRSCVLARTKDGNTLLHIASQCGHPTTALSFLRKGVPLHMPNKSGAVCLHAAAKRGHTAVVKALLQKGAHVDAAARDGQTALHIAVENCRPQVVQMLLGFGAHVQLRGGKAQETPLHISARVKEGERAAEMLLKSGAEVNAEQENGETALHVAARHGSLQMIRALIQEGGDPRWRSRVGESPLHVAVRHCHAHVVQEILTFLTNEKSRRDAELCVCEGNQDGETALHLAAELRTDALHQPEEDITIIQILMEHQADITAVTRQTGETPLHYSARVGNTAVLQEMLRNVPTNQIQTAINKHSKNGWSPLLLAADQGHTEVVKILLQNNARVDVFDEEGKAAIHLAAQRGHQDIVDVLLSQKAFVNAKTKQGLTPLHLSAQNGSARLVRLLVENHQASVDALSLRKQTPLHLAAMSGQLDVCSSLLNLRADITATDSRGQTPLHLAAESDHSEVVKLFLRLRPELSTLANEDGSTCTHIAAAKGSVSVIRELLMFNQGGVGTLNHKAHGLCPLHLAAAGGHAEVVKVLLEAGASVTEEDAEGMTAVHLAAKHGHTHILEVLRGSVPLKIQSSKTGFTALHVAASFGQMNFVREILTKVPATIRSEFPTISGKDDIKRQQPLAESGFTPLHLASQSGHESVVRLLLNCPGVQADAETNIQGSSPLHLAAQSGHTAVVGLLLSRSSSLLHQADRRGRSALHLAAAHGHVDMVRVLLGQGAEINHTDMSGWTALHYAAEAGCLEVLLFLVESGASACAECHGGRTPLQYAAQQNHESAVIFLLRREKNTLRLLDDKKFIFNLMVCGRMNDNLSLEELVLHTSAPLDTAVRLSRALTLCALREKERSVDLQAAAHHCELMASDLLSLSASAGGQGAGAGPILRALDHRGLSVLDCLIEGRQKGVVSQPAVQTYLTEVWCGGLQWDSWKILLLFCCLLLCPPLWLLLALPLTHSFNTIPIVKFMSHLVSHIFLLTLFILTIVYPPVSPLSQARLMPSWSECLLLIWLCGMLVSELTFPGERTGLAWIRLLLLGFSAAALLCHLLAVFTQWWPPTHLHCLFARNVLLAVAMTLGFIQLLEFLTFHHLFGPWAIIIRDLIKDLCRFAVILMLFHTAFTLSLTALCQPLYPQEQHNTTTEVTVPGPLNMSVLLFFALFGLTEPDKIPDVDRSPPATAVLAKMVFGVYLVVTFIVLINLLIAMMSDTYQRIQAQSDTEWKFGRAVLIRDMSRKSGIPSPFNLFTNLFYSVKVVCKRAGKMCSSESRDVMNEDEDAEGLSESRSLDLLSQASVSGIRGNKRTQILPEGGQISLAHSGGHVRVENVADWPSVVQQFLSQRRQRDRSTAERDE

[12] = molecular target: T2, Kappa-type opioid receptor (Homo sapiens, UniProt P41145); assay: SAR analysis of small molecule antagonists of the kappa opioid receptor via a luminescent beta-arrestin assay - Set 6. [Related pubchem assays (depositor defined):AID1777, AID1778, AID1785, AID1786, AID1966, AID2133, AID2136, AID2285]; assay type: functional
T2 sequence (P41145 whole entry): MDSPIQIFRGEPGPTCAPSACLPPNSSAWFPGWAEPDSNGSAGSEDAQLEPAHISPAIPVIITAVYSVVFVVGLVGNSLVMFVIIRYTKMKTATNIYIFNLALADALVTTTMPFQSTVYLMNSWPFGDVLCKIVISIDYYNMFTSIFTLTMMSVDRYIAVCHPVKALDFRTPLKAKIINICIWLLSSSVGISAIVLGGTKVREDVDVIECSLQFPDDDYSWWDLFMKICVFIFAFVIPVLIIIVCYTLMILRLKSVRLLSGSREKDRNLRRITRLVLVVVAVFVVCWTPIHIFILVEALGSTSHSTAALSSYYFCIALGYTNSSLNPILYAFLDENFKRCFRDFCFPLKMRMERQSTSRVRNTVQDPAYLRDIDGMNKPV

Mu-type opioid receptor = Mu-type opioid receptor (Homo sapiens, UniProt P35372); assay: SAR Analysis of Antagonists of the MOR Receptor using an Image-Based Assay - Set 3. [Related pubchem assays (depositor defined):AID1777, AID1785, AID1786, AID1966, AID2133, AID2136, AID2284, AID2285, AID2420]; assay type: functional
Mu-type opioid receptor, sequence (P35372 whole entry): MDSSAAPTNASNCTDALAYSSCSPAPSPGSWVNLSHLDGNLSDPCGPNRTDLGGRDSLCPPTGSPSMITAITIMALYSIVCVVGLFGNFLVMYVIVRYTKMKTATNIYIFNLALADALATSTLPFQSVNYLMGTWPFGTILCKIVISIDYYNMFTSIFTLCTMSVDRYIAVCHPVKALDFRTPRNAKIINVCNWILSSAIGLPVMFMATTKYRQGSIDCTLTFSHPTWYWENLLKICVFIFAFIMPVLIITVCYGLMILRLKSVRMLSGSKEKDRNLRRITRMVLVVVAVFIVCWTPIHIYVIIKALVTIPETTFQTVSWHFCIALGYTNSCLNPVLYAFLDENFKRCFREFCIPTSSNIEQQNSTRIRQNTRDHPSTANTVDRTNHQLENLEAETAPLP

[13] = molecular target: Delta-type opioid receptor (Homo sapiens, UniProt P41143); assay: SAR Analysis of Antagonists of the DOR Receptor using an Image-Based Assay - Set 3. [Related pubchem assays (depositor defined):AID1777, AID1785]; assay type: functional;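 note: U2OS cells expressing DOR1 and beta-arrestin GFP stimulated with 100 nM SNC80; imaging of GFP-tagged beta-arrestin moving into spots after receptor activation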
Delta-type opioid receptor, sequence (P41143 whole entry): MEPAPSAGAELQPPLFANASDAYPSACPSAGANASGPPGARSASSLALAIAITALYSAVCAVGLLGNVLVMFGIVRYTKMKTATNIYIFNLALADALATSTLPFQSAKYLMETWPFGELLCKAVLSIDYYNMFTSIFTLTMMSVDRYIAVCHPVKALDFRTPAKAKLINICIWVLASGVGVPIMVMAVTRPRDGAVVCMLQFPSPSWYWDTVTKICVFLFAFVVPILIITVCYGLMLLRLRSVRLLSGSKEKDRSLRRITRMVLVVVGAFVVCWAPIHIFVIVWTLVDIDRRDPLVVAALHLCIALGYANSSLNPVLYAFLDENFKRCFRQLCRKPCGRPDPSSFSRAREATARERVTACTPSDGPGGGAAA

[14] = molecular target: T2, Kappa-type opioid receptor; assay: SAR analysis of small molecule antagonists of the kappa opioid receptor via a luminescent beta-arrestin assay - Set 4. [Related pubchem assays (depositor defined):AID1777, AID1778, AID1785, AID1786, AID1966, AID2133, AID2136, AID2285]; assay type: functional
[15] = molecular target: T2, Kappa-type opioid receptor; assay: SAR analysis of Antagonists of the Kappa Opioid Receptor (KOR) using an Image-Based Assay - Set 4. [Related pubchem assays (depositor defined):AID1777, AID1785]; assay type: functional
[16] = molecular target: T3, Dual specificity protein phosphatase 3 (Homo sapiens, UniProt P51452); assay: SAR VHR1 absorbance Assay for In Vitro dose response studies. [Related pubchem assays (depositor defined):AID1654, AID1661, AID1878, AID1992, AID2004]
T3 sequence (P51452 whole entry): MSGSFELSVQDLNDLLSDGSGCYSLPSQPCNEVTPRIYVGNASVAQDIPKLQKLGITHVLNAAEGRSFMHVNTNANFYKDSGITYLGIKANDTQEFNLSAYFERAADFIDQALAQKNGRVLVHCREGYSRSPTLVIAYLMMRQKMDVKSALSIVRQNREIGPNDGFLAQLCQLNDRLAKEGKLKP

[17] = molecular target: T4, Dual specificity protein phosphatase 6 (Rattus norvegicus, UniProt Q64346); assay type: functional;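 note: confirmatory in vitro dose-response testing of MKP-3 inhibition; recombinant His-tagged MKP-3 made in E. coli BL21 with OMFP substrate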
T4 sequence (Q64346 whole entry): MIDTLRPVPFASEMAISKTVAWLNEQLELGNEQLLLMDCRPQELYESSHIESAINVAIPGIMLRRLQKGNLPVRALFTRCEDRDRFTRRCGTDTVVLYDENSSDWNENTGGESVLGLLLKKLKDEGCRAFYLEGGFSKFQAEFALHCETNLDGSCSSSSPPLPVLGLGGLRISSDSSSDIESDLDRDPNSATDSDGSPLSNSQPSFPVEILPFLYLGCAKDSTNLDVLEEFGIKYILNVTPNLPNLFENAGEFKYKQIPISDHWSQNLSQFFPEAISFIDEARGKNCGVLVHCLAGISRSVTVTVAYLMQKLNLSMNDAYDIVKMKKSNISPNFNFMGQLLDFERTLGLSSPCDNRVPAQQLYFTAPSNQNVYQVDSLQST

[18] = molecular target: T3, Dual specificity protein phosphatase 3; assay: SAR VHR1 Fluorescent Assay for In Vitro dose response studies. [Related pubchem assays (depositor defined):AID1654, AID1661, AID1878, AID1992, AID2004, AID2070, AID2085]; assay type: functional
[19] = molecular target: Tyrosine-protein phosphatase non-receptor type 12 (Homo sapiens, UniProt Q05209); assay: SAR Selectivity Analysis of small molecule inhibitors of PEST using pCAP in a fluorescence assay. [Related pubchem assays (depositor defined):AID1779, AID1784, AID2135]; assay type: functional
Tyrosine-protein phosphatase non-receptor type 12, sequence (Q05209 whole entry): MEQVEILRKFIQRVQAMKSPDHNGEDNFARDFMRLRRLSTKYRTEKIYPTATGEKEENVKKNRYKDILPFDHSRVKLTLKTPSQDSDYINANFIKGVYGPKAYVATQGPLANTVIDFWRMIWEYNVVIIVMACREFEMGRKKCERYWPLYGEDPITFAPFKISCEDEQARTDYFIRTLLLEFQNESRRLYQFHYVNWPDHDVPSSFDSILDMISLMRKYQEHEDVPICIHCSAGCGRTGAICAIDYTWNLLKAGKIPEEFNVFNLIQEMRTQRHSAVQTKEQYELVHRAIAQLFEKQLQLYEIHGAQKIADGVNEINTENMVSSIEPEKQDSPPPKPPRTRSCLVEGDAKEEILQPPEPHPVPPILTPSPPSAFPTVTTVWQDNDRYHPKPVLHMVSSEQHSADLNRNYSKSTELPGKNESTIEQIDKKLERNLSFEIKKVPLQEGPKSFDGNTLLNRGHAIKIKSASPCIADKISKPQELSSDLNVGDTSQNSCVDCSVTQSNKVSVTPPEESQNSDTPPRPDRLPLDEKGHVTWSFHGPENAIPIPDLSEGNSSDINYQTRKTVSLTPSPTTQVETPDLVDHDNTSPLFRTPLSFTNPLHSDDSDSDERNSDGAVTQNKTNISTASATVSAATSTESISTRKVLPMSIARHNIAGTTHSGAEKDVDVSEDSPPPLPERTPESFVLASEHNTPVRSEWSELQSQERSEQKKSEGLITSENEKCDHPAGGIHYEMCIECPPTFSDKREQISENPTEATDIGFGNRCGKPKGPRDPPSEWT

[20] = molecular target: T5, Tyrosine-protein phosphatase non-receptor type 22 (Homo sapiens, UniProt Q9Y2R2); assay: LYP (PTPN22) phosphatase inhibitor potency, SAR follow-up, biochemical, pCAP fluorogenic substrate, fluorescence, set 3 (AID 449727); assay type: functional
T5 sequence (Q9Y2R2 whole entry): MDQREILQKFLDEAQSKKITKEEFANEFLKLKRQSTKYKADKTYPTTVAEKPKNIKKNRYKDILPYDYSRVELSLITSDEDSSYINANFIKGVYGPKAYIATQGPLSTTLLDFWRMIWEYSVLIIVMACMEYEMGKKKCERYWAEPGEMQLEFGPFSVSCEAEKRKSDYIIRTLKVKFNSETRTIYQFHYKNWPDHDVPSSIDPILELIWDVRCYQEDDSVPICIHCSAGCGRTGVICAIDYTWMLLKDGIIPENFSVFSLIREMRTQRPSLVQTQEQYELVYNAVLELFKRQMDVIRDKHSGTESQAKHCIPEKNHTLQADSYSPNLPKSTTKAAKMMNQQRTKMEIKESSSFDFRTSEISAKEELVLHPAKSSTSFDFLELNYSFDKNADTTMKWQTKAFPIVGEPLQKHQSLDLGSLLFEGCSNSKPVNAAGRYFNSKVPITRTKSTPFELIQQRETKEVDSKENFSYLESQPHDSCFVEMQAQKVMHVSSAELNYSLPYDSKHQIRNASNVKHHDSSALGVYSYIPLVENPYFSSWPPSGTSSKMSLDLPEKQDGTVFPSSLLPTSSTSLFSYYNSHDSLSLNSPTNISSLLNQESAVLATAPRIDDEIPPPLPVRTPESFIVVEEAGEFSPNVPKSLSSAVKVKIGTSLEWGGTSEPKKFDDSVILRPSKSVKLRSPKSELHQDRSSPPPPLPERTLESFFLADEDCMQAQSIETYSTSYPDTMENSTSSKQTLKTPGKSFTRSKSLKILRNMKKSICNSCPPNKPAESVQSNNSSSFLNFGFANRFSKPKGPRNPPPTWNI

[21] = molecular target: T6, Tyrosine-protein phosphatase non-receptor type 7 (Homo sapiens, UniProt P35236); assay: redox-dependent HePTP inhibition, mechanism study, biochemical, fluorescence (AID 2068); assay type: functional
T6 sequence (P35236 whole entry): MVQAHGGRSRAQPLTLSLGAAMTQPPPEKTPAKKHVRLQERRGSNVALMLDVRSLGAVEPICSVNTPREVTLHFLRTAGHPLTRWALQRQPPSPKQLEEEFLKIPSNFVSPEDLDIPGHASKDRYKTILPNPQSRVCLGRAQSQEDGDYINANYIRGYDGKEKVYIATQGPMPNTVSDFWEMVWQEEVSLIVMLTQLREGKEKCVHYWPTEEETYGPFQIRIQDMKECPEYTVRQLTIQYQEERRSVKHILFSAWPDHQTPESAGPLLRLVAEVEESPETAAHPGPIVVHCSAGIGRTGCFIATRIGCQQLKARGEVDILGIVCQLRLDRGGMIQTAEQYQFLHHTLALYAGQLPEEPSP

[22] = molecular target: T5, Tyrosine-protein phosphatase non-receptor type 22; assay: SAR LYP1 Fluorescent Assay using OMFP substrate for In Vitro dose response studies - Set 3. [Related pubchem assays (depositor defined):AID1779, AID1784, AID2140, AID2686]; assay type: functional

Type-1 angiotensin II receptor, sequence (P30556 whole entry, the tested form may be a part): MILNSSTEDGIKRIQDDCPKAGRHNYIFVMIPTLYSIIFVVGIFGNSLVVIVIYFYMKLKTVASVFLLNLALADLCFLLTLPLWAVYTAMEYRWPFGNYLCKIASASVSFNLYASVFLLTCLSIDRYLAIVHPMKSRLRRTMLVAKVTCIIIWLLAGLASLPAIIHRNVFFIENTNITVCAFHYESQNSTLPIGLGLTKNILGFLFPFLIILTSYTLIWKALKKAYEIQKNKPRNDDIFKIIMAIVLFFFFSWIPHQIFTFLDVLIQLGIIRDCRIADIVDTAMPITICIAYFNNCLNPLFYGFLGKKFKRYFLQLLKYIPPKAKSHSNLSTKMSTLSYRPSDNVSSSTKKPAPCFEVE

SMILES: CCOC(=O)C1=C(Cn2cnc3ccccc32)NC(=O)NC1c1cc(C)ccc1C (configuration not stated)
- EC50 [1]: > 100 µM (inactive)

SMILES: CSc1ccc(NC(=O)Nc2cccn(Cc3ccccc3)c2=O)cc1
- IC50 (cells): 11.4 µM (active)
- IC50 [2]: > 100 µM (active)
- CC50 [3]: > 40 µM (active)
- CC50 [4]: > 20 µM (active)
- CC50 [5]: > 40 µM (active)

SMILES: COc1cccc(/C=C2/NC(=O)N(CC(=O)Nc3ccc(C)cc3)C2=O)c1OCc1cccc(C(=O)O)c1
- IC50 [6]: > 100 µM (inactive)
- IC50 [7]: 10.6 µM (active)

SMILES: Cc1nc(SCC(=O)Nc2ccc(C)c(F)c2)c2oc3ccccc3c2n1
- Absolute IC50 (CHOP) [8]: 10 µM

SMILES: CCCCN=C(S)Nc1ccc([N+](=O)[O-])cc1
- EC50 [9]: 19.6 µM (active)
- EC50 (Mucolipin-3): > 29.9 µM (not active)
- IC50 [10]: 12 µM (active)
- EC50 [11]: 20.7 µM (active)
- AC50 (HEK293): 105 µM (active)
- EC50 (Ion channel NompC): > 29.9 µM (inactive)

SMILES: CC(C)N(CCNC(=O)c1ccc(CNS(=O)(=O)c2ccc(C3CCCCC3)cc2)cc1)Cc1ccccc1
- IC50 [12]: > 20 µM (inactive)
- IC50 (Mu-type opioid receptor): 2.47 µM (active)
- IC50 [13]: > 32 µM (inactive)
- IC50 [14]: > 20 µM (inactive)
- IC50 [15]: 1.22 µM (active)

SMILES: O=C(COc1c(Cl)cccc1Cl)Oc1ccc([N+](=O)[O-])cc1
- IC50 [16]: > 100 µM (inactive)
- IC50 [17]: > 99 µM (inactive)
- IC50 [18]: > 99 µM (inactive)
- IC50 [19]: 42.5 µM (active)
- IC50 [20]: 63.7 µM (active)
- IC50 [21]: 15.1 µM (active)
- IC50 [22]: > 100 µM (inactive)
